Test results taken from patent US10370343B2, “[6,6] Fused bicyclic HDAC8 inhibitors” (FORMA Therapeutics, Inc., priority 2015, dated 2019).

Columns and labels:
[1] = molecular target: T1, Recombinant N-terminal GST tag full-length human HDAC8 (Homo sapiens, UniProt Q9BY41); test: HDAC8 probe binding assay, time resolved fluorescence (TRF) format; details: compounds grouped by IC50 range (Table 2)
T1 construct: Recombinant N-terminal GST tag full-length human HDAC8; purchased SignalChem H90-30G-1000; host or cells: baculovirus in Sf9 insect cells
T1 sequence (Q9BY41 1-377): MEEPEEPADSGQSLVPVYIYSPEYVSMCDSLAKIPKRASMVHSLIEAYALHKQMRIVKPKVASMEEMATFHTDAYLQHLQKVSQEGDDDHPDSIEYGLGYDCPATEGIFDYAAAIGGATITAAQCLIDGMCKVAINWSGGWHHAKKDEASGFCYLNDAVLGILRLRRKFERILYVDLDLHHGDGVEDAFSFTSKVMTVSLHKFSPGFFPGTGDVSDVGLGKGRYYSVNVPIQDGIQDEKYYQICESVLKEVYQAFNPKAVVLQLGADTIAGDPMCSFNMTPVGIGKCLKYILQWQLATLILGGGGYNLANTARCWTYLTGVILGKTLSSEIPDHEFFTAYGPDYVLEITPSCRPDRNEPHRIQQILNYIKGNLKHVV
Procedure, shortened: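 Probe-binding TRF assay using full-length N-GST human HDAC8 expressed in baculovirus-infected Sf9 cells, incubated 16 h at room temperature and read at 340 nm excitation, 485/535 nm emission. Percent inhibition was normalised to no-enzyme and DMSO controls. IC50 was obtained by 4-parameter logistic fit.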

[2] = molecular target: T2, Full length human recombinant HDAC8 protein (Homo sapiens, UniProt Q9BY41); test: In vitro histone deacetylase assay: enzymatic HDAC8 electrophoretic mobility shift assay; assay type: biochemical; details: electrophoretic mobility shift assay; enzyme 1 nM; 2 μM fluorescently labeled peptide substrate RHKK(Ac)-NH2; 25° C.; 12 concentrations; read-out: HDAC8 IC50
T2 construct: Full length human recombinant HDAC8 protein was expressed in baculoviral system; made in house
T2 sequence (Q9BY41 1-377): T1 sequence (Q9BY41 1-377)

SMILES | IC50 [1] [µM] | IC50 [2] [µM]
CCCCN1C(=O)COc2ccc(C(=O)NO)cc21 [Compound I-45, 4-butyl-N-hydroxy-3-oxo-3,4-dihydro-2H-benzo[b][1,4]oxazine-6-carboxamide] | 0.025 to 0.1 | 0.025 to 0.1
O=C(NO)c1ccc2c(c1)N(CCOCC1CC1)C(=O)CO2 [Compound I-50, 4-(2-(cyclopropylmethoxy)ethyl)-N-hydroxy-3-oxo-3,4-dihydro-2H-benzo[b][1,4]oxazine-6-carboxamide] | 0.025 to 0.1 | 0.025 to 0.1
O=C(NO)c1ccc2c(c1)N(CCOCC(F)(F)F)C(=O)CO2 [Compound I-53, N-hydroxy-3-oxo-4-(2-(2,2,2-trifluoroethoxy)ethyl)-3,4-dihydro-2H-benzo[b][1,4]oxazine-6-carboxamide] | 0.025 to 0.1 | 0.025 to 0.1
CC(C)CCN1C(=O)COc2ccc(C(=O)NO)cc21 [Compound I-59, N-hydroxy-4-isopentyl-3-oxo-3,4-dihydro-2H-benzo[b][1,4]oxazine-6-carboxamide] | 0.025 to 0.1 | 0.025 to 0.1
CS(=O)(=O)c1ccc(CN2CCS(=O)(=O)c3ccc(C(=O)NO)cc32)cc1 [Compound I-82, N-hydroxy-4-(4-(methylsulfonyl)benzyl)-3,4-dihydro-2H-benzo[b][1,4]thiazine-6-carboxamide-1,1-dioxide] | ≤ 0.025 | < 0.025
CC(c1ccc(S(C)(=O)=O)cc1)N1C(=O)COc2ccc(C(=O)NO)cc21 (stereo not shown) [Compound I-94, N-hydroxy-4-(1-(4-(methylsulfonyl)phenyl)ethyl)-3-oxo-3,4-dihydro-2H-benzo[b][1,4]oxazine-6-carboxamide] | ≤ 0.025 | < 0.025
CC(c1c(F)cccc1F)N1C(=O)COc2ccc(C(=O)NO)cc21 (stereo not shown) [Compound I-96, 4-(1-(2,6-difluorophenyl)ethyl)-N-hydroxy-3-oxo-3,4-dihydro-2H-benzo[b][1,4]oxazine-6-carboxamide] | 0.025 to 0.1 | 0.025 to 0.1
COc1ccc(CN2C(=O)C(C)(C)Oc3ccc(C(=O)NO)cc32)cc1 [Compound I-98, N-hydroxy-4-(4-methoxybenzyl)-2,2-dimethyl-3-oxo-3,4-dihydro-2H-benzo[b][1,4]oxazine-6-carboxamide] | 0.025 to 0.1 | 0.025 to 0.1
CCC1Oc2ccc(C(=O)NO)cc2N(Cc2ccc(OC)cc2)C1=O (stereo not shown) [Compound I-99, 2-ethyl-N-hydroxy-4-(4-methoxybenzyl)-3-oxo-3,4-dihydro-2H-benzo[b][1,4]oxazine-6-carboxamide] | ≤ 0.025 | < 0.025
COc1ccc(CN2C(=O)C(C(C)C)Oc3ccc(C(=O)NO)cc32)cc1 (stereo not shown) [Compound I-100, N-hydroxy-2-isopropyl-4-(4-methoxybenzyl)-3-oxo-3,4-dihydro-2H-benzo[b][1,4]oxazine-6-carboxamide] | ≤ 0.025 | < 0.025
COc1ccc(CN2C(=O)C(c3ccccc3)Oc3ccc(C(=O)NO)cc32)cc1 (stereo not shown) [Compound I-101, N-hydroxy-4-(4-methoxybenzyl)-3-oxo-2-phenyl-3,4-dihydro-2H-benzo[b][1,4]oxazine-6-carboxamide] | ≤ 0.025 | < 0.025
COc1ccc(CN2C(=O)C(Cc3ccccc3)Oc3ccc(C(=O)NO)cc32)cc1 (stereo not shown) [Compound I-102, 2-benzyl-N-hydroxy-4-(4-methoxybenzyl)-3-oxo-3,4-dihydro-2H-benzo[b][1,4]oxazine-6-carboxamide] | ≤ 0.025 | 0.025 to 0.1
COc1ccc(CN2C(=O)C(C(C)(C)C)Oc3ccc(C(=O)NO)cc32)cc1 (stereo not shown) [Compound I-103, 2-(tert-butyl)-N-hydroxy-4-(4-methoxybenzyl)-3-oxo-3,4-dihydro-2H-benzo[b][1,4]oxazine-6-carboxamide] | ≤ 0.025 | < 0.025
COc1ccc(CN2C(=O)C(CCN)Oc3ccc(C(=O)NO)cc32)cc1 (stereo not shown) [Compound I-104, 2-(2-aminoethyl)-N-hydroxy-4-(4-methoxybenzyl)-3-oxo-3,4-dihydro-2H-benzo[b][1,4]oxazine-6-carboxamide] | ≤ 0.025 | 0.025 to 0.1
CS(=O)(=O)c1cccc(CN2CCOc3ccc(C(=O)NO)cc32)c1 [Compound I-125, N-hydroxy-4-(3-(methylsulfonyl)benzyl)-3,4-dihydro-2H-benzo[b][1,4]oxazine-6-carboxamide] | 0.025 to 0.1 | 0.1 to 1
CC(c1ccc(S(C)(=O)=O)cc1)N1CCOc2ccc(C(=O)NO)cc21 (stereo not shown) [Compound I-135, N-hydroxy-4-(1-(4-(methylsulfonyl)phenyl)ethyl)-3,4-dihydro-2H-benzo[b][1,4]oxazine-6-carboxamide] | 0.025 to 0.1 | 0.025 to 0.1

More lines, now with the values ahead:

IC50 [1] [µM] | IC50 [2] [µM] | SMILES
≤ 0.025 | < 0.025 | O=C(NO)c1ccc2c(c1)N(Cc1ccc(F)cc1)C(=O)CO2 [Compound I-37, 4-(4-fluorobenzyl)-N-hydroxy-3-oxo-3,4-dihydro-2H-benzo[b][1,4]oxazine-6-carboxamide]
≤ 0.025 | < 0.025 | Cc1ccc(CN2C(=O)COc3ccc(C(=O)NO)cc32)cc1 [Compound I-38, N-hydroxy-4-(4-methylbenzyl)-3-oxo-3,4-dihydro-2H-benzo[b][1,4]oxazine-6-carboxamide]
0.025 to 0.1 | 0.025 to 0.1 | O=C(NO)c1ccc2c(c1)N(CCc1ccccc1)C(=O)CO2 [Compound I-58, N-hydroxy-3-oxo-4-phenethyl-3,4-dihydro-2H-benzo[b][1,4]oxazine-6-carboxamide]
0.025 to 0.1 | 0.025 to 0.1 | COc1cccc(CN2C(=O)COc3ccc(C(=O)NO)cc32)c1 [Compound I-60, N-hydroxy-4-(3-methoxybenzyl)-3-oxo-3,4-dihydro-2H-benzo[b][1,4]oxazine-6-carboxamide]
0.025 to 0.1 | < 0.025 | O=C(NO)c1ccc2c(c1)N(Cc1ccc3nonc3c1)C(=O)CO2 [Compound I-62, 4-(benzo[c][1,2,5]oxadiazol-5-ylmethyl)-N-hydroxy-3-oxo-3,4-dihydro-2H-benzo[b][1,4]oxazine-6-carboxamide]
≤ 0.025 | < 0.025 | O=C(NO)c1ccc2c(c1)N(Cc1ccc(Cl)cc1)C(=O)CO2 [Compound I-64, 4-(4-chlorobenzyl)-N-hydroxy-3-oxo-3,4-dihydro-2H-benzo[b][1,4]oxazine-6-carboxamide]
≤ 0.025 | 0.025 to 0.1 | Cc1cccc(CN2C(=O)COc3ccc(C(=O)NO)cc32)c1 [Compound I-68, N-hydroxy-4-(3-methylbenzyl)-3-oxo-3,4-dihydro-2H-benzo[b][1,4]oxazine-6-carboxamide]
≤ 0.025 | < 0.025 | Cc1cccc(CN2C(=O)COc3ccc(C(=O)NO)cc32)c1F [Compound I-74, 4-(2-fluoro-3-methylbenzyl)-N-hydroxy-3-oxo-3,4-dihydro-2H-benzo[b][1,4]oxazine-6-carboxamide]
0.025 to 0.1 | 0.025 to 0.1 | Cc1nc(-c2ccccc2)sc1CN1C(=O)COc2ccc(C(=O)NO)cc21 [Compound I-76, N-hydroxy-4-((4-methyl-2-phenylthiazol-5-yl)methyl)-3-oxo-3,4-dihydro-2H-benzo[b][1,4]oxazine-6-carboxamide]
≤ 0.025 | < 0.025 | O=C(NO)c1ccc2c(c1)N(Cc1cn(-c3ccccc3)nn1)C(=O)CO2 [Compound I-77, N-hydroxy-3-oxo-4-[(1-phenyl-1H-1,2,3-triazol-4-yl)methyl]-3,4-dihydro-2H-1,4-benzoxazine-6-carboxamide]
0.025 to 0.1 | 0.1 to 1 | O=C(NO)c1ccc2c(c1)N(Cc1ccccc1)CCO2 [Compound I-116, 4-benzyl-N-hydroxy-3,4-dihydro-2H-benzo[b][1,4]oxazine-6-carboxamide]
≤ 0.025 | < 0.025 | COc1ccc(CN2C(=O)COc3ccc(C(=O)NO)cc32)cc1 [Compound I-141, N-hydroxy-4-(4-methoxybenzyl)-3-oxo-3,4-dihydro-2H-benzo[b][1,4]oxazine-6-carboxamide]
≤ 0.025 | < 0.025 | CS(=O)(=O)c1ccc(CN2C(=O)COc3ccc(C(=O)NO)cc32)cc1 [Compound I-142, N-hydroxy-4-(4-(methylsulfonyl)benzyl)-3-oxo-3,4-dihydro-2H-benzo[b][1,4]oxazine-6-carboxamide]
≤ 0.025 | < 0.025 | O=C(NO)c1ccc2c(c1)N(Cc1cccc(Cl)c1)C(=O)CO2 [Compound I-143, 4-(3-chlorobenzyl)-N-hydroxy-3-oxo-3,4-dihydro-2H-benzo[b][1,4]oxazine-6-carboxamide]
0.025 to 0.1 | 0.025 to 0.1 | CS(=O)(=O)c1cccc(CN2C(=O)COc3ccc(C(=O)NO)cc32)c1 [Compound I-145, N-hydroxy-4-(3-(methylsulfonyl)benzyl)-3-oxo-3,4-dihydro-2H-benzo[b][1,4]oxazine-6-carboxamide]
0.025 to 0.1 | < 0.025 | O=C(NO)c1ccc2c(c1)N(Cc1ccccc1Cl)C(=O)CO2 [Compound I-147, 4-(2-chlorobenzyl)-N-hydroxy-3-oxo-3,4-dihydro-2H-benzo[b][1,4]oxazine-6-carboxamide]
